The results in this text go back to patent publication US9567642B2, “Methods and products related to targeted cancer therapy” (Massachusetts Institute of Technology, priority 2012, dated 2017).

Experiment [1] concerns p53 wild type or p53 mutant cells. Nature of the experiment: Q-RT-PCR of doxorubicin induced p21 and CD80 mRNA. In kind it is cell-based, human. Particulars: set of p53 wild type or p53 mutant cells, FIG. 14. The procedure: Tumors were isolated from Kras^LA2/+; Trp53^LSL/LSL; Rosa26^CreERT2 animals, dissociated with collagenase and trypsin for one hour at 37° C., and then grown in DME plus 10% fetal bovine serum. Human cell lines were obtained from American Type Culture Collection and grown per manufacturer recommendations.
RNA was isolated from cultured cells with Trizol reagent following manufacturer protocol. Complementary DNA was generated from 1 μg total RNA using High Capacity RT-PCR Kit (Roche, quantitative PCR (Q-RT-PCR)) following manufacturer protocol. Total cDNA was diluted 20 fold in H2O and 10 μL was used in a SYBR green quantitative PCR reaction. Specifically, specific primers were diluted from 100 μM stocks to a final concentration of 0.25 μM into JumpStart Ready Taq SYBR green (Sigma) and 10 μL was mixed with 10 μL diluted cDNA and cycled 40 times with the following cycling parameters on a Step One Plus (Applied Biosystems) real-time thermocycler: […]

The test system of experiment [2] is CD80 cell surface expression. Nature of the experiment: Flow cytometry of CD80 cell surface expression. Particulars: cells untreated, treated with tamoxifen, AdFlpO or AdCre; FIG. 11. In kind it is cell-based, mouse. The procedure:
Tumors were isolated from Kras^LA2/+; Trp53^LSL/LSL; Rosa26^CreERT2 animals, dissociated with collagenase and trypsin for one hour at 37° C., and then grown in DME plus 10% fetal bovine serum. Human cell lines were obtained from American Type Culture Collection and grown per manufacturer recommendations. Cells were harvested from plasticware using 2 mM EDTA solution. Approximately 1 […] cells were resuspended in % FBS in PBS and incubated with APC conjugated CD80 Ab at a 1:100 dilution (Hamster IgG2 Clone:16-10A1 from BD Biosciences). Cells were scanner on a FASCaliber flow cytometer (BD Biosciences).
A general note: In flow cytometry, cells or beads pass a laser one at a time.

Take `COc1cccc2c1C(=O)c1c(O)c3c(c(O)c1C2=O)C[C@@](O)(C(=O)CO)C[C@@H]3O[C@H]1C[C@H](N)[C@H](O)[C@H](C)O1` [doxorubicin]: in experiment [1], the “induction of p21 as measured by Q-RT-PCR” value is on record as “induced”. Further, the “induction of CD80 as measured by Q-RT-PCR” value in experiment [1] (induction of human CD80 mirrors p21 induction) was “induced”. Consider `CC/C(=C(\c1ccccc1)c1ccc(OCCN(C)C)cc1)c1ccccc1` [tamoxifen], for which the “CD80 cell surface expression (flow cytometry histograms)” value in experiment [2] is on record as “not tamoxifen dependent”.
